The source made the active and inactive calls. The rule behind the calls is not given here.
Test system: Klebsiella pneumoniae
Assay: Tested for inhibition of oxygen uptake by the compound included in an extract of Klebsiella pneumoniae along with substrate 1 at the dose of 0.8 mM; No inhibition
Format: functional, organism-based

SMILES: CSCC1OC(CP(=O)(O)O)[C@H](O)[C@@H]1O (stereo partly specified)
- Activity: inactive
